Measurements published in a melting point compilation (Tetko et al.; mined from patent text by program, amines drawn as free bases though some values may be those of a salt).

SMILES | melting point [°C]
CCOC(=O)c1cc2c(cc(C)n2OC)nc1C(=O)OCC | 94.5 to 96.5
OC(CCl)(CC(Cl)(Cl)Cl)c1cc(Cl)cc(Cl)c1 (stereo not given) | 69 to 70.5
COc1cc2c(CCNC(C)=O)cn(C(C)=O)c2cc1Cl | 178 to 181
CCCCNc1cc(-c2nc(N)n[nH]2)ccn1 | 268 to 270
COc1cc(C(C)=O)ccc1OCCCCN1CCC(C(O)(c2ccc(F)cc2)c2ccc(F)cc2)CC1 | 104 to 105
O=C1CCCC1n1nc(-c2c(-c3ccccc3)nn3ccccc23)ccc1=O (stereo not given) | 167 to 168
CC(C)(C)NC(=O)CP(=O)(O)O | 163 to 165
CSc1nn(-c2c(Cl)cc(C(F)(F)F)cc2Cl)c(N)c1C(=O)c1cc(C)ccc1C | 130 to 132
CSc1nc(NCCCn2ccnc2)c(C#N)c(N2CCc3ccccc3CC2)n1 | 131 to 134
Cc1cc(NC(=O)Nc2cccc3c2C2CCCCN2C3=O)no1 (stereo not given) | 156
CCCCCCCCCC(=O)Cc1ccc(OCc2ccccc2)c(OCc2ccccc2)c1 | 68
Cc1cccc(-c2ccc3c(C(N)=O)nn(-c4ccc(S(N)(=O)=O)cc4)c3c2)c1 | 261 to 263
Cc1cc(C)c2cccc(OCc3c(Cl)ccc(S(=O)(=O)N4CCC[C@H]4C(=O)NCCCNC(=O)c4ccc(C=NN)cc4)c3Cl)c2n1 | 178 to 180
COc1cc(C=C2CCc3c2nc2ccc(Cl)cn2c3=O)cc(OC)c1OC | 222 to 223
CC(=O)Nc1ccc(OC(=O)C=CC=C(C)C=CC=C(C)C=CC2=C(C)CCCC2(C)C)cc1 | 219 to 222
N=c1nc(N)c2nc[nH]c2c(N)n1 | > 200
CS(=O)(=O)c1ccc(CC(N)C(O)C(=O)C2(C(=O)NC(CCCNC(=N)N)C(=O)O)CCCC2N)cc1 (stereo not given) | 142 to 145
CCC1CCC2(C)C(=CCC3C4CCC(=O)C4(C)CCC32)C1 (stereo not given) | 73 to 75
O=C(NCCC(=O)N1CCOCC1)c1ccc(-c2ccc3nnn(Cc4ccc5ncccc5c4)c3n2)cc1F | 212 to 215
CC(=O)NCC1CNC(=O)O1 (stereo not given) | 138
CCOC(=O)CC(NCCCNC(C)(C)C)C(=O)O (stereo not given) | 174 to 175
CCOC(=O)Cn1nnc(-c2cccc(OCc3ccc4ccccc4n3)c2)n1 | 111 to 113
O=C(c1ccccc1C(c1ccc(O)cc1)c1ccc(O)cc1)N(c1ccccc1)c1ccccc1 | 262 to 263

SMILES | melting point [°C]
Cc1ccc(C)c(C2=C(O)C(CC3CCS(=O)(=O)CC3)NC2=O)c1 (stereo not given) | 244 to 246
CC(C)c1ccccc1Sc1c(O)cc(-c2ccc(-c3cccnc3)cc2)oc1=O | 145 to 147
CCCOc1ccccc1-c1nc2cc([N+](=O)[O-])ccc2c(=O)[nH]1 | 138
C[C@@H](O)C1(c2onc(-c3ccc(O)cc3)c2-c2ccccc2)CC1 | 213
CCOc1cc(Cc2cnc(N)nc2N)cc2c1OC(C)(C)C=C2C(C)(C)O | 209 to 210
CCOCc1nc2c(N)nc3ccc(O)cc3c2n1CC(C)(C)NS(C)(=O)=O | 252 to 254
Cn1cncc1C(O)(c1ccc(Cl)cc1)c1ccc2c(c1)C(c1cccc(Cl)c1)OCC(=S)N2 (stereo not given) | > 300
Cc1cccc2c(-c3ccc(Cl)cc3)noc12 | 88 to 90
COC(=O)C(C)NC(=O)C1C(C)(C)CCC1(C)C (stereo not given) | 86.7
CCCCn1c(=O)c2nn(S(=O)(=O)c3ccc(C(C)(C)C)cc3)cc2n(CCCC)c1=O | 158 to 159
CC(C)OC(=O)c1cc(-n2c(=O)n3n(c2=S)COCC3)c(F)cc1Cl | 67 to 69
O=c1nc(NCCCOc2cc(CN3CCCCC3)ccn2)c2ccccc2[nH]1 | 189 to 192
Cc1nc(N)c2nc(C)n(CCNC(=O)C(C)C)c2c1C | 220 to 222
Cc1cccc(-c2n[nH]cc2-c2ccc(F)c(-c3ccc(N4CCOCC4)nc3)c2)n1 | 85 to 87
CC(C)CNC(=O)C(C)NC(=O)C(C)NC(=O)C(C)NC(=O)CCC(=O)O (stereo not given) | 283 to 286
CCCCCCCCc1cnc(-c2ccc(F)cc2)nc1 | 23.5
O=[N+]([O-])c1ccc(N2C[C@@H]3C[C@H]2CS3)cc1F | 97 to 98
CCNc1nc(Br)cn2c(Br)cnc12 | 131
CC(C)n1c(=O)nc(-c2ccc3c(c2)OCCO3)c2cc3c(cc21)OCO3 | 214 to 217
COc1ccc(OCCCCCN2CCC(CNC(=O)c3cc(Cl)c(N)cc3OC)CC2)cc1OC | 85 to 87
COc1c(NS(=O)(=O)c2ccccc2)cccc1C(=O)Nc1ccccc1 | 190 to 194
Cc1cc(C#N)cnc1N | 198 to 200
O=[N+]([O-])c1ccc(Oc2ccc(C(F)(F)F)cc2Cl)cc1[N+](=O)[O-] | 80 to 81

SMILES | melting point [°C]
O=c1[nH]c2c(Cl)c(Cl)ccc2s1 | 229
O=C(CCC1CCCCC1)NC1N=C(C2CCCCC2)c2ccccc2NC1=O (stereo not given) | 133 to 138
CCN(CC)C(=O)N1CCc2ccc(S(=O)(=O)NC(=O)NC3CCCCC3)cc2CC1 | 168 to 169
Cc1ccc(-c2[nH]c(-c3ccc(C(F)(F)F)cc3)nc2C(=O)Nc2nccs2)s1 | 235 to 237
CCCc1cn(Cc2ccc(C(=O)NS(=O)(=O)c3ccccc3Cl)cc2OC)c2cc(CCCC(=O)N(C)C)ccc12 | 137 to 138
N#Cc1ccc2[nH]c(C(N)=O)cc2c1 | > 300
O=C1Cc2cc(F)c(F)cc2N1 | 187 to 190
C[C@H]1C(=O)C[C@@H]2C[C@H]1OO[C@]2(C)/C=C\c1ccc(C(F)(F)F)cc1Cl | 160
CC(=O)c1cc(F)cc(C#N)c1F | 80 to 83
O=[N+]([O-])c1ccc(SCc2c[nH]cn2)nc1 | 155 to 156
Cc1ccc(-c2cc(F)c(F)cc2-c2ccc(S(C)(=O)=O)cc2)cn1 | 141 to 142
OC(CN1CCNC1=S)c1cccc(C(F)(F)F)c1 (stereo not given) | 117
COc1ccc(NC(=O)c2ccccc2C(c2ccc(O)cc2)c2ccc(O)cc2)c(OC)c1 | 122 to 124
Fc1ccc2c(C3=CCN(CC4CCc5ccccc5O4)CC3)c[nH]c2c1 (stereo not given) | 160 to 161
N=C(N)c1ccc(C(=O)N[C@@H](Cc2ccccc2)C(=O)N2CCc3nn(CC(=O)O)cc3C2)cc1 | 146 to 150
CCc1ccc(C2CCCN2S(=O)(=O)c2ccc(Cl)cc2)cc1 (racemic) | 94
CCCc1nc(C(OCC)OCC)cc(NC(c2ccccc2)(c2ccccc2)c2ccccc2)c1F | 111 to 112
CCC12CCC3C4CCC(=O)C=C4CCC3C1CCC2OC (stereo not given) | 117 to 119
COc1ccc2sc(C(=O)OCC(C)(C)C(O)C(C)(C)C)cc2c1 (stereo not given) | 121 to 122
CNC(=O)[C@@H]1C[C@@H](OCC2CC2)CN1S(=O)(=O)c1ccc(Cl)c(COc2cccc3c(-n4ccnc4)cc(C)nc23)c1Cl | 98
CN(C)CCc1c[nH]c2ccc(CCC(=O)NCc3ccc(NS(C)(=O)=O)cc3)cc12 | 78 to 82

Other lines, results leading:

melting point [°C] | SMILES
211 to 213 | CCOC(=O)C1=C(C(C)C)Nc2n[nH]cc2C1c1ccccc1Cl (stereo not given)
252 to 254 | COc1ccc(C=CC(=O)NNC(=O)CCc2cc(C(C)(C)C)c(O)c(C(C)(C)C)c2)cc1
115 to 116 | Cc1ccnc(C(=O)c2sc(Cl)nc2C)c1
126 to 127 | CCOC(=O)C(=O)CCc1ccccc1
84 to 85 | Cc1ccc(COC(C)CN(O)C(N)=O)s1 (stereo not given)
38 to 42 | CC(C)(C)C(=O)C(Br)c1ccccc1 (stereo not given)
151 to 153 | NS(=O)(=O)c1c(Cl)cccc1-c1ccccc1Cl
301 to 303 | CCOC(=O)Cc1c2c(nn1-c1ccccc1)c(=O)[nH]c1ccccc12
69 to 70 | CC(COc1ccccc1C(=O)C(=O)c1ccccc1OCC(C)CN(C)C)CN(C)C (stereo not given)
240 | CCC(=S)C1=C(C)NC2=C(C1)C(=O)c1ccccc12
105 to 106 | Cc1nc(NCCc2ccccc2)c2c(n1)N(c1ccccc1)CC2
87 to 88 | COc1cc(C=CC(=O)c2ccccc2)ccc1O
142 to 143 | CC1(C)CCC(O)(CCN2C(=O)CSC2CCCc2ccc(C(=O)O)cc2)CC1 (stereo not given)
90 to 95 | COc1ccc(S(=O)(=O)C2(C(=O)NO)CCN(Cc3ccccc3)CC2)cc1
132 to 135 | O=C(O)CCNc1ccc(-c2ccc3nnn(Cc4ccc5ncccc5c4)c3n2)cc1F
204 to 206 | Cc1ccc(C(=O)NNC(=O)c2ccccc2Cl)cc1
44 to 47 | O=S1(=O)N=Cc2ccccc2O1

melting point [°C] | SMILES
175 | Cc1cccc(NC(=O)NCC(=O)N(c2ccccc2)C(C(=O)OC(C)(C)C)C(=O)OC(C)(C)C)c1
148 to 149 | Cc1cc(=O)c(C(=O)Nc2ccccc2)c(C)o1
123 to 125 | CN1c2ccccc2N(Cc2ccccc2)C(=O)[C@H]2CCC[C@H]21 (relative stereo)
79 to 80 | CC(=O)Nc1nc(-c2ccccc2)c(CCOC(C)=O)c2ncnn12
94 | CCCCOc1cc(C=O)c([N+](=O)[O-])cc1OCc1ccccc1
134 to 135 | CCCN1C(=O)C2CC(c3ccc(N(C)C)cc3)(C2)C1=O
102 to 103 | O=C1CC(c2ccccc2)CC(=O)O1
140 to 142 | O=C(O)COCc1cc2cc(Cl)ccc2n1S(=O)(=O)c1ccccc1
95 to 96 | CCOC(=O)C1=NN(c2ccc(Cl)cc2)C2(N3CCCC3)CCCC12 (stereo not given)
80 to 83 | CCOCc1nc2c(NC(=O)c3ccccc3)nc3ccccc3c2n1CC(C)(C)NS(C)(=O)=O
182 to 183 | CC(F)(F)c1cccc(C[C@@H](NC(=O)c2ccc(F)c3ccccc23)[C@@H](O)c2ccc(F)cc2)c1 (racemic)
96.9 | NNC(=O)C[C@H](O)COCc1ccccc1
52 to 54 | COC(=O)Cc1c(C(=O)OC)ccn1CCO
39 to 40 | Cc1sc2ccccc2c1Br
103 to 105 | CC[C@]1(C(=O)NCC=Cc2ccccc2F)[C@H](C)C1(Cl)Cl (relative stereo)
222 to 224 | O=Cc1ccc2c(c1)c1cc(C=O)ccc1n2Cc1ccccc1
